Measurements: patent US7445765B2, “Radiopharmaceutical for diagnostic imaging containing a technetium-99m nitride heterocomplex” (Nihon Medi-Physics Co., Ltd., priority 2000, dated 2008)

Experiment: Biodistribution of the 99mTc(N) heterocomplexes in rats (organ uptake, heart accumulation, heart/lung and heart/liver ratios)
Type: in vivo, female Sprague-Dawley rats
Conditions: for Heart/liver ratio in biodistribution / Heart/lung ratio in biodistribution: rats
Experimental: The biodistribution was measured by using female Sprague-Dawley rats (SD rats) weighing 200 g to 250 g. Each of the ^99mTc(N) heterocomplexes purified in the manner described above was diluted with phosphate buffer (0.1 M, pH=7.4) to obtain a final solution having an ethanol content of 10%. After the SD rats were anesthetized with an intramuscular injection of a mixture of ketamine (80 mg/kg) and xilazine (19 mg/kg), the jugular vein of each rat was surgically exposed and 100 μL (300 to 370 kBq) of the solution containing each ^99mTc(N) heterocomplexes prepared in the manner described above was injected in the jugular vein. The rats (n=3) were sacrificed by cervical dislocation at different times post injection. The blood was withdrawn from the heart through a syringe and counted. It was assumed that the whole blood content was 6.5% of the total body weight. The organs were excised from the rats, washed with physiological saline, weighed, and counted in a NaI well counter.
For comparison, Tables 19 and 20 show the results, obtained in the same manner as above, of measuring the biodistribution of (^99mTc) (MIBI) and (^99mTc) (Tf) which have been used as pharmaceuticals for diagnostic imaging for blood flow in myocardium.
Tables 21 to 23 show data showing the variations with time of heart accumulation, heart/lung ratios and heart/liver ratios for the ^99mTc(N) heterocomplexes of the present invention.

In the case of `CCOCCN1CC[P](CCCOC)(CCCOC)[99Tc+]2(#[N])([S]C(N(CCOCC)C(C)C)=[S]2)[P](CCCOC)(CCCOC)CC1` [[^99mTc(N) (PNP5) (ISOET)]^+], the “Biodistribution in rats: Adrenal glands” value (2 min post injection) is reported as 2.24 % dose/g, the “Biodistribution in rats: Blood” value (2 min post injection) is reported as 0.14 % dose/g and the “Biodistribution in rats: Brain” value (2 min post injection) is reported as 0.02 % dose/g. For the same compound, the “Biodistribution in rats: Heart” value (2 min post injection) was 2.33 % dose/g, the “Biodistribution in rats: Intestine” value (2 min post injection) was 3.68 % dose/g and the “Biodistribution in rats: Kidneys” value (2 min post injection) was 7.19 % dose/g. For the same compound, the “Biodistribution in rats: Liver” value (2 min post injection) was 2.79 % dose/g, the “Biodistribution in rats: Lungs” value (2 min post injection) was 0.74 % dose/g and the “Biodistribution in rats: Muscle” value (2 min post injection) was 0.16 % dose/g. The “Biodistribution in rats: Spleen” value (2 min post injection) was 1.11 % dose/g, the “Biodistribution in rats: Submax. glands” value (2 min post injection) was 0.95 % dose/g and the “Biodistribution in rats: Adrenal glands” value (10 min (Table 16)) was 2.22 % dose/g. For the same compound, the “Biodistribution in rats: Blood” value (10 min (Table 16)) was 0.93 % dose/g, the “Biodistribution in rats: Brain” value (10 min (Table 16)) was 0.10 % dose/g and the “Biodistribution in rats: Heart” value (10 min (Table 16)) was 3.35 % dose/g. The “Biodistribution in rats: Intestine” value (10 min (Table 16)) was 3.70 % dose/g, the “Biodistribution in rats: Kidneys” value (10 min (Table 16)) was 5.40 % dose/g and the “Biodistribution in rats: Liver” value (10 min (Table 16)) was 0.95 % dose/g. For the same compound, the “Biodistribution in rats: Lungs” value (10 min (Table 16)) was 2.44 % dose/g, the “Biodistribution in rats: Muscle” value (10 min (Table 16)) was 0.13 % dose/g and the “Biodistribution in rats: Spleen” value (10 min (Table 16)) was 1.16 % dose/g. For the same compound, the “Biodistribution in rats: Submax. glands” value (10 min (Table 16)) was 0.92 % dose/g, the “Biodistribution in rats: Adrenal glands” value (10 min post injection) was 2.70 % dose/g and the “Biodistribution in rats: Blood” value (10 min post injection) was 0.04 % dose/g. For the same compound, the “Biodistribution in rats: Brain” value (10 min post injection) was 0.02 % dose/g, the “Biodistribution in rats: Heart” value (10 min post injection) was 2.91 % dose/g and the “Biodistribution in rats: Intestine” value (10 min post injection) was 7.12 % dose/g. For the same compound, the “Biodistribution in rats: Kidneys” value (10 min post injection) was 5.98 % dose/g, the “Biodistribution in rats: Liver” value (10 min post injection) was 1.54 % dose/g and the “Biodistribution in rats: Lungs” value (10 min post injection) was 0.73 % dose/g. The “Biodistribution in rats: Muscle” value (10 min post injection) was 0.22 % dose/g, the “Biodistribution in rats: Spleen” value (10 min post injection) was 1.28 % dose/g and the “Biodistribution in rats: Submax. glands” value (10 min post injection) was 1.40 % dose/g. The “Biodistribution in rats: Adrenal glands” value (20 min post injection) was 2.70 % dose/g, the “Biodistribution in rats: Blood” value (20 min post injection) was 0.02 % dose/g and the “Biodistribution in rats: Brain” value (20 min post injection) was 0.01 % dose/g. For the same compound, the “Biodistribution in rats: Heart” value (20 min post injection) was 2.86 % dose/g, the “Biodistribution in rats: Intestine” value (20 min post injection) was 7.44 % dose/g and the “Biodistribution in rats: Kidneys” value (20 min post injection) was 5.31 % dose/g. The “Biodistribution in rats: Liver” value (20 min post injection) was 1.09 % dose/g, the “Biodistribution in rats: Lungs” value (20 min post injection) was 0.50 % dose/g and the “Biodistribution in rats: Muscle” value (20 min post injection) was 0.20 % dose/g. The “Biodistribution in rats: Spleen” value (20 min post injection) was 1.20 % dose/g, the “Biodistribution in rats: Submax. glands” value (20 min post injection) was 1.85 % dose/g and the “Biodistribution in rats: Adrenal glands” value (30 min post injection) was 2.72 % dose/g. The “Biodistribution in rats: Blood” value (30 min post injection) was 0.02 % dose/g, the “Biodistribution in rats: Brain” value (30 min post injection) was 0.01 % dose/g and the “Biodistribution in rats: Heart” value (30 min post injection) was 2.47 % dose/g. The “Biodistribution in rats: Intestine” value (30 min post injection) was 8.36 % dose/g, the “Biodistribution in rats: Kidneys” value (30 min post injection) was 5.28 % dose/g and the “Biodistribution in rats: Liver” value (30 min post injection) was 1.06 % dose/g. The “Biodistribution in rats: Lungs” value (30 min post injection) was 0.45 % dose/g, the “Biodistribution in rats: Muscle” value (30 min post injection) was 0.13 % dose/g and the “Biodistribution in rats: Spleen” value (30 min post injection) was 0.35 % dose/g. For the same compound, the “Biodistribution in rats: Submax. glands” value (30 min post injection) was 1.51 % dose/g, the “Biodistribution in rats: Adrenal glands” value (60 min post injection) was 2.23 % dose/g and the “Biodistribution in rats: Blood” value (60 min post injection) was 0.02 % dose/g. For the same compound, the “Biodistribution in rats: Brain” value (60 min post injection) was 0.00 % dose/g, the “Biodistribution in rats: Heart” value (60 min post injection) was 2.74 % dose/g and the “Biodistribution in rats: Intestine” value (60 min post injection) was 8.29 % dose/g. The “Biodistribution in rats: Kidneys” value (60 min post injection) was 5.12 % dose/g, the “Biodistribution in rats: Liver” value (60 min post injection) was 0.43 % dose/g and the “Biodistribution in rats: Lungs” value (60 min post injection) was 0.35 % dose/g. The “Biodistribution in rats: Muscle” value (60 min post injection) was 0.15 % dose/g, the “Biodistribution in rats: Spleen” value (60 min post injection) was 0.73 % dose/g and the “Biodistribution in rats: Submax. glands” value (60 min post injection) was 1.79 % dose/g. For the same compound, the “Biodistribution in rats: Adrenal glands” value (120 min post injection) was 2.98 % dose/g, the “Biodistribution in rats: Blood” value (120 min post injection) was 0.01 % dose/g and the “Biodistribution in rats: Brain” value (120 min post injection) was 0.01 % dose/g. The “Biodistribution in rats: Heart” value (120 min post injection) was 2.44 % dose/g, the “Biodistribution in rats: Intestine” value (120 min post injection) was 8.00 % dose/g and the “Biodistribution in rats: Kidneys” value (120 min post injection) was 4.50 % dose/g. The “Biodistribution in rats: Liver” value (120 min post injection) was 0.23 % dose/g, the “Biodistribution in rats: Lungs” value (120 min post injection) was 0.22 % dose/g and the “Biodistribution in rats: Muscle” value (120 min post injection) was 0.19 % dose/g. The “Biodistribution in rats: Spleen” value (120 min post injection) was 0.41 % dose/g and the “Biodistribution in rats: Submax. glands” value (120 min post injection) was 1.38 % dose/g.

For `CCOCCN1CC[P](CCCOC)(CCCOC)[99Tc+]2(#[N])([S]C(N(CCOCC)C(C)C)=[S]2)[P](CCCOC)(CCCOC)CC1` [[^99mTc(N) (PNP5) (ISOET)^+]], the “Heart/liver ratio in biodistribution” value (0 min) was 3.53, the “Heart/lung ratio in biodistribution” value (0 min) was 1.37 and the “Heart/liver ratio in biodistribution” value (2 min) was 0.83. For the same compound, the “Heart/lung ratio in biodistribution” value (2 min) was 3.15, the “Heart/liver ratio in biodistribution” value (10 min) was 1.90 and the “Heart/lung ratio in biodistribution” value (10 min) was 3.99. The “Heart/liver ratio in biodistribution” value (20 min) was 2.62, the “Heart/lung ratio in biodistribution” value (20 min) was 5.72 and the “Heart/liver ratio in biodistribution” value (30 min) was 2.33. The “Heart/lung ratio in biodistribution” value (30 min) was 5.49, the “Heart/liver ratio in biodistribution” value (60 min) was 6.37 and the “Heart/lung ratio in biodistribution” value (60 min) was 7.83. For the same compound, the “Heart/liver ratio in biodistribution” value (120 min) was 10.61 and the “Heart/lung ratio in biodistribution” value (120 min) was 11.09.

For `CCOCCC[P]1(CCCOCC)CCN(CCOCC)CC[P](CCCOCC)(CCCOCC)[99Tc+]12(#[N])[S]C(N(CCOCC)CCOCC)=[S]2` [[^99mTc(N) (PNP6) (DBODC)^+]], the “Heart/liver ratio in biodistribution” value (0 min) was 0.63, the “Heart/lung ratio in biodistribution” value (0 min) was 0.58 and the “Heart/liver ratio in biodistribution” value (2 min) was 0.21. For the same compound, the “Heart/lung ratio in biodistribution” value (2 min) was 0.99, the “Heart/liver ratio in biodistribution” value (10 min) was 0.18 and the “Heart/lung ratio in biodistribution” value (10 min) was 1.26. The “Heart/liver ratio in biodistribution” value (20 min) was 0.18, the “Heart/lung ratio in biodistribution” value (20 min) was 1.48 and the “Heart/liver ratio in biodistribution” value (30 min) was 0.23. For the same compound, the “Heart/lung ratio in biodistribution” value (30 min) was 1.75, the “Heart/liver ratio in biodistribution” value (60 min) was 0.31 and the “Heart/lung ratio in biodistribution” value (60 min) was 2.29. For the same compound, the “Heart/liver ratio in biodistribution” value (120 min) was 0.51 and the “Heart/lung ratio in biodistribution” value (120 min) was 3.91.
